{
  "source": "ChEMBL document CHEMBL3352016",
  "about": "“Natural hydrazine-containing compounds: Biosynthesis, isolation, biological activities and synthesis” (Bioorg Med Chem, 2014)",
  "key": {"[1]": {"test": "Anticancer activity against human MDA231 cells", "format": "functional, cell-based", "settings": "MDA-MB-231"}, "A-375": {"system": "A-375", "test": "Anticancer activity against human A375 cells", "format": "functional, cell-based"}, "[2]": {"test": "Anticancer activity against human Caco2 cells", "format": "functional, cell-based", "settings": "Caco-2"}, "[3]": {"test": "Anticancer activity against human HCT116 cells", "format": "functional, cell-based", "settings": "HCT-116"}, "[4]": {"test": "Inhibition of Escherichia coli DnaG primase"}},
  "data": [
    {"smiles": "CCCC/C=C\\N(NC(C)=O)C(=O)CCC1=CCOC1=O", "note": "[GERALCIN B]", "values": [
      {"measurement": "IC50", "setting": "[1]", "value": 5, "unit": "µM"}
    ]},
    {"smiles": "N[C@@H](CCC(=O)NNc1ccc(O)cc1)C(=O)O", "note": "[XANTHODERMINE]", "values": [
      {"measurement": "IC50", "setting": "A-375", "value": 1.6, "unit": "µM"}
    ]},
    {"smiles": "COc1cc(/C=C/C(=O)NCCc2c[nH]c3ccc(O)cc23)ccc1O", "note": "[N-FERULOYL SEROTONIN]", "values": [
      {"measurement": "IC50", "setting": "[2]", "value": 81, "unit": "µM"}
    ]},
    {"smiles": "CCCC/C=C\\N(NC(C)=O)C(=O)C(CO)/N=[N+](\\[O-])CCCCCC", "note": "(stereo not given) [GERALCIN C]", "values": [
      {"measurement": "IC50", "setting": "[3]", "value": 0.8, "unit": "µM"},
      {"measurement": "IC50", "setting": "[4]", "value": 700, "unit": "µM"}
    ]}
  ]
}
